Laboratory results: ChEMBL document CHEMBL5543163, “Druglike, 18F-labeled PET Tracers Targeting Fibroblast Activation Protein” (J Med Chem, 2024)

Columns and labels:
Prolyl endopeptidase FAP = molecular target: T1, Prolyl endopeptidase FAP (Homo sapiens, UniProt Q12884); test: Inhibition of FAP (unknown origin) using Z-Gly-Pro-7-amino-4-methylcoumarine as fluorogenic substrate preincubated for 15 mins followed by substrate addition and measured after 15 mins
T1 sequence (Q12884 whole entry): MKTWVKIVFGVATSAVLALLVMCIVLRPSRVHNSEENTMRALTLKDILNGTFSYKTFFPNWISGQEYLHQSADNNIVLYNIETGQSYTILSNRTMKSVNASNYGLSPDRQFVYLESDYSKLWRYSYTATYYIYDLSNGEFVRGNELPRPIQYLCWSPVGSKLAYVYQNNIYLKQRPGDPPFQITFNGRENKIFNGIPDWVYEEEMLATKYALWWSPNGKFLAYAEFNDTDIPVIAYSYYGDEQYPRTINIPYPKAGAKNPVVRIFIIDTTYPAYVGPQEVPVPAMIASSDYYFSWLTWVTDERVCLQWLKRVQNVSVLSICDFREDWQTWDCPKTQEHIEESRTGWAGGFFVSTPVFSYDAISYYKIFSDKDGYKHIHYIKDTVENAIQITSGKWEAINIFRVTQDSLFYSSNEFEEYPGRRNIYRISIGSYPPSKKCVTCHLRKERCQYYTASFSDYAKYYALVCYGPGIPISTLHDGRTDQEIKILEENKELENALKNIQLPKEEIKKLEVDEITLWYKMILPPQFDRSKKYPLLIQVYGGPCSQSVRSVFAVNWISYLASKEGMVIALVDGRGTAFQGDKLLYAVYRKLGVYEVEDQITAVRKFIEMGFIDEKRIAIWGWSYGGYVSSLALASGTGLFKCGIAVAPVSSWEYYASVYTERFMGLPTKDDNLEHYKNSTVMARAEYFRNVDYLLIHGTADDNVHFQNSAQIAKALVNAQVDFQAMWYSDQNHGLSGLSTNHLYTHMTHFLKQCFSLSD

Dipeptidyl peptidase 9 = Dipeptidyl peptidase 9 (Homo sapiens, UniProt Q86TI2); test: Inhibition of DPP9 (unknown origin) using Ala-Pro-paranitroanilide as chromogenic substrate preincubated for 15 mins followed by substrate addition and measured after 15 mins
Dipeptidyl peptidase 2 = Dipeptidyl peptidase 2 (Homo sapiens, UniProt Q9UHL4); test: Inhibition of DPP2 (unknown origin) using Lys-Ala-pNA as substrate preincubated for 15 mins followed by substrate addition and measured after 15 mins
Prolyl endopeptidase = molecular target: T2, Prolyl endopeptidase (Homo sapiens, UniProt P48147); test: Inhibition of PREP (unknown origin) using N-succinyl-Gly-Pro-AMC as substrate preincubated for 15 mins followed by substrate addition and measured after 15 mins
T2 sequence (P48147 whole entry): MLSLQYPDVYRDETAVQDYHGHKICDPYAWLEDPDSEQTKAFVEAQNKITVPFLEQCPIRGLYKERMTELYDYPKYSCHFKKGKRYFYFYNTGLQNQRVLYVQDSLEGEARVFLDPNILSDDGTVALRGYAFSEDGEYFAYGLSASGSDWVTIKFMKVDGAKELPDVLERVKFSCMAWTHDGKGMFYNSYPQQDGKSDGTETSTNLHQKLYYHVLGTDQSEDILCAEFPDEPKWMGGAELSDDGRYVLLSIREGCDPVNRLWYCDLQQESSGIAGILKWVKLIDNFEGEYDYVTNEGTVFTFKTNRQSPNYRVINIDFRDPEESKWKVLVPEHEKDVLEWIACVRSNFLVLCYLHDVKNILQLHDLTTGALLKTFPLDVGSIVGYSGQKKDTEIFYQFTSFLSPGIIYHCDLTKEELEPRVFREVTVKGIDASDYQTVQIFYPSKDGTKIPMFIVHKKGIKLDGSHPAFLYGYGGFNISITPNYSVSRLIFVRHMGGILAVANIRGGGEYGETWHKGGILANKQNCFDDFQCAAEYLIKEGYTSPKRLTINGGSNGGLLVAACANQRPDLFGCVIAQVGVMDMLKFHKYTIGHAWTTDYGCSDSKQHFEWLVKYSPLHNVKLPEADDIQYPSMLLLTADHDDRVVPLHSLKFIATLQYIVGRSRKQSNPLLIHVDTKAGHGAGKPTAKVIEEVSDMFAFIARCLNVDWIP

Dipeptidyl peptidase 8 = Dipeptidyl peptidase 8 (Homo sapiens, UniProt Q6V1X1); test: Inhibition of DPP8 (unknown origin) using Ala-Pro-paranitroanilide as chromogenic substrate preincubated for 15 mins followed by substrate addition and measured after 15 mins
Dipeptidyl peptidase 4 = Dipeptidyl peptidase 4 (Homo sapiens, UniProt P27487); test: Inhibition of DPP4 (unknown origin) using Ala-Pro-paranitroanilide as chromogenic substrate preincubated for 15 mins followed by substrate addition and measured after 15 mins
Dipeptidyl peptidase 4, sequence (P27487 whole entry): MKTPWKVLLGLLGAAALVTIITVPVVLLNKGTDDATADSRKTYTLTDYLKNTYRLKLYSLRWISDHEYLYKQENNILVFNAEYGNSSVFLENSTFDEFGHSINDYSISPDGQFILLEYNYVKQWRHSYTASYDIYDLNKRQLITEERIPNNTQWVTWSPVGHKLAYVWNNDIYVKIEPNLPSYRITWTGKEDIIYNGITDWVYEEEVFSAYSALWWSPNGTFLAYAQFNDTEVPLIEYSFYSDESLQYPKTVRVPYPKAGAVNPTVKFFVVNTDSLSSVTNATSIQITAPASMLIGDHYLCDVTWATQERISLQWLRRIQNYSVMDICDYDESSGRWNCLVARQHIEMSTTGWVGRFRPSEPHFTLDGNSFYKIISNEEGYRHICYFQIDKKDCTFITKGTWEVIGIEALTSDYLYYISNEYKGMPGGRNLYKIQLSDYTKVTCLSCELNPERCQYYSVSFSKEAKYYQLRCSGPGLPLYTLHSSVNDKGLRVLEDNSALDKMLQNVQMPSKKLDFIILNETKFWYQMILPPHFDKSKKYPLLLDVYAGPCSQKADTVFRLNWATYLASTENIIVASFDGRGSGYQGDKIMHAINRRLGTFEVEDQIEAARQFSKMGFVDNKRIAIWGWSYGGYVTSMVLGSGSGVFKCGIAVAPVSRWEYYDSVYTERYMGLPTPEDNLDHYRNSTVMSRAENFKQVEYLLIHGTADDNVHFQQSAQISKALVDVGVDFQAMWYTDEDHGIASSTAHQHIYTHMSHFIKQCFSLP

Dipeptidyl peptidase 9, sequence (Q86TI2 whole entry): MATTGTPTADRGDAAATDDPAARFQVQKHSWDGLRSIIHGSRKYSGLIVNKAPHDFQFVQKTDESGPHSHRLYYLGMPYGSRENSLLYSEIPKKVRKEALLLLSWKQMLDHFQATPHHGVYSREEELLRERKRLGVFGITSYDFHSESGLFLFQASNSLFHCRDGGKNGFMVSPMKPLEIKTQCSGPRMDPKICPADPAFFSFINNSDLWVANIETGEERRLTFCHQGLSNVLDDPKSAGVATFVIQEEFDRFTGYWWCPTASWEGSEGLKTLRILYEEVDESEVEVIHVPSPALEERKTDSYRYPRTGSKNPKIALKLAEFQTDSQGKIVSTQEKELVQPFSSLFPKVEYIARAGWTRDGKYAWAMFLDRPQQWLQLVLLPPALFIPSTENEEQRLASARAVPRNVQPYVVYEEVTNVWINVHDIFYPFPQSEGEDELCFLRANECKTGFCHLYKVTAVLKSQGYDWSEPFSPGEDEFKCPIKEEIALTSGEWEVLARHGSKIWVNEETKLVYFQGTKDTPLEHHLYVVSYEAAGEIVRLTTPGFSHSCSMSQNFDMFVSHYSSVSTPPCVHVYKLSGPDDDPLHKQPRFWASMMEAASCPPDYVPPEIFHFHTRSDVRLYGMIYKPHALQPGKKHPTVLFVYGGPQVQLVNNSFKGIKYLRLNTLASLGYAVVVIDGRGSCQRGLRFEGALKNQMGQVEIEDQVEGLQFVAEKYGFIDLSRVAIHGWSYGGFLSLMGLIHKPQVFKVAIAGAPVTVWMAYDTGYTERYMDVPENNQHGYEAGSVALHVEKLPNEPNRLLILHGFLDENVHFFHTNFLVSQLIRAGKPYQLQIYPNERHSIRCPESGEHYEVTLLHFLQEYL
Dipeptidyl peptidase 8, sequence (Q6V1X1 whole entry): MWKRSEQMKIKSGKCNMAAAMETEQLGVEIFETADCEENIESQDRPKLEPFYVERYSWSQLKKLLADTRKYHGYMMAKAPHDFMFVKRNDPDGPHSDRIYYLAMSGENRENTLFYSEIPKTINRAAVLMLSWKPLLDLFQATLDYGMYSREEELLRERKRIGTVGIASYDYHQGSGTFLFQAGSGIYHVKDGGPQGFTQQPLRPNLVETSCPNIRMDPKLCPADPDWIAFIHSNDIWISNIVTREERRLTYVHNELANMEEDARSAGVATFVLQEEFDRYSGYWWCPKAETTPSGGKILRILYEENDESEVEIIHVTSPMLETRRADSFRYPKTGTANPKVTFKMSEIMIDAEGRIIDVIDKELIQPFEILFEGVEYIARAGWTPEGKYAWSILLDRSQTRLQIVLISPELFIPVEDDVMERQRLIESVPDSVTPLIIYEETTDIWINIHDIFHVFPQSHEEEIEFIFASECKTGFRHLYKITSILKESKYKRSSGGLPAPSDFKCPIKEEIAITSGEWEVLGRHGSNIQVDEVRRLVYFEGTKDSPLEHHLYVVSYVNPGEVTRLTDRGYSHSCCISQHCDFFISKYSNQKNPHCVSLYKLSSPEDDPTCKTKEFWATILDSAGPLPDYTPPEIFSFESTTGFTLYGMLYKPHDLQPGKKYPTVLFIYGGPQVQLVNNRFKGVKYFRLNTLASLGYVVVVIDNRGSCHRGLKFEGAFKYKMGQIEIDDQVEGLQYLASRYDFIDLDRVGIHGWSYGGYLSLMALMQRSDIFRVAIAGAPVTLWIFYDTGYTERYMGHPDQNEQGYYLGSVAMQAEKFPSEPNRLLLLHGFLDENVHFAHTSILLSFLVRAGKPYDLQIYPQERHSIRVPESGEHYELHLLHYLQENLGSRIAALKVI

COC(CF)COc1ccc2nccc(C(=O)NCC(=O)N3CC(F)(F)C[C@H]3C#N)c2c1 (stereo partly drawn)
IC50 (Prolyl endopeptidase FAP): 0.0014 µM | IC50 (Dipeptidyl peptidase 9): 1.6 µM | IC50 (Dipeptidyl peptidase 2): > 10 µM | IC50 (Prolyl endopeptidase): > 10 µM | IC50 (Dipeptidyl peptidase 8): 5.8 µM | IC50 (Dipeptidyl peptidase 4): > 10 µM

N#C[C@@H]1CC(F)(F)CN1C(=O)CNC(=O)c1ccnc2ccc(OC[C@H](O)[C@@H](O)CF)cc12
IC50 (Prolyl endopeptidase FAP): 0.00177 µM | IC50 (Dipeptidyl peptidase 9): > 10 µM | IC50 (Dipeptidyl peptidase 2): > 10 µM | IC50 (Prolyl endopeptidase): > 10 µM | IC50 (Dipeptidyl peptidase 8): > 10 µM | IC50 (Dipeptidyl peptidase 4): > 10 µM

C[N+](C)(CF)CCCOc1ccc2nccc(C(=O)NCC(=O)N3CC(F)(F)C[C@H]3C#N)c2c1
IC50 (Dipeptidyl peptidase 2): > 10 µM
